For orientation: pIC50 means the IC50 on a negative log10 scale, so that one unit is a factor of ten. Higher therefore signals a small IC50.

pIC50: −log10 of the molar value. Where only a bound is given, the exact number is not on record here.

For the experiment, the system named is KRAS G12V dependent lung adenocarcinoma cell line, NCI-H441. Description: Cellular pERK (Thr202/Tyr204) FRET/HTRF assay. The experiment is classed as cell-based. As to conditions: Homo sapiens, NCI-H441, cellular pERK (Thr202/Tyr204) HTRF, NCI-H441 cells. The procedure, abridged:
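NCI-H441 cells (KRAS G12V) plated overnight at 37 °C, then exposed to compounds for 1 hr at 37 °C, 5% CO2; DMSO as negative control. Lysates read by Eu-cryptate/d2 sandwich FRET (665 nm) for ERK1/2 phosphorylated at Thr202/Tyr204; IC50 from curve fit.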
In general terms: TR-FRET usually uses a lanthanide donor and a delayed reading to cut background.
Regarding `[2H]C([2H])(Oc1nc(N2CCOC[C@H]3[C@H](F)[C@H]32)c2cnc(-c3cc(NC(C)=O)cc4ccc(F)c(C#C)c34)c(F)c2n1)[C@@]12CCCN1C[C@H](F)C2` [Example 263, N-(5-ethynyl-6-fluoro-4-(8-fluoro-4-((1S,7S,8S)-8-fluoro-5-oxa-2-azabicyclo[5.1.0]octan-2-yl)-2-(((2R,7aS)-2-fluorotetrahydro-1H-pyrrolizin-7a(5H)-yl)methoxy-d2)pyrido[4,3-d]pyrimidin-7-yl)naphthalen-2-yl)acetamide], the pIC50 is 6.30 to 7.30.
`[2H]c1cc(F)c(C#C)c2c(-c3ncc4c(N5CCOC[C@H]6[C@H](F)[C@H]65)nc(OC([2H])([2H])[C@@]56CCCN5C[C@H](F)C6)nc4c3F)cc(N)cc12` [Example 264, 5-ethynyl-6-fluoro-4-(8-fluoro-4-((1S,7S,8S)-8-fluoro-5-oxa-2-azabicyclo[5.1.0]octan-2-yl)-2-(((2R,7aS)-2-fluorotetrahydro-1H-pyrrolizin-7a(5H)-yl)methoxy-d2)pyrido[4,3-d]pyrimidin-7-yl)naphthalen-8-d-2-amine] showed a pIC50 above 7.30.
In turn, `[2H]C([2H])(Oc1nc(N2CCOC[C@H]3[C@H](F)[C@H]32)c2cnc(-c3cc(N)cc4cccc(C#C)c34)c(F)c2n1)[C@@]12CCCN1C[C@H](F)C2` [Example 268, 5-ethynyl-4-(8-fluoro-4-((1S,7S,8S)-8-fluoro-5-oxa-2-azabicyclo[5.1.0]octan-2-yl)-2-(((2R,7aS)-2-fluorotetrahydro-1H-pyrrolizin-7a(5H)-yl)methoxy-d2)pyrido[4,3-d]pyrimidin-7-yl)naphthalen-2-amine] had a pIC50 above 7.30.
For `[2H]C([2H])(Oc1nc(N2CCOC[C@H]3[C@H](F)[C@H]32)c2cnc(-c3cc(N)cc4ccc(F)c(C#C)c34)c(Cl)c2n1)[C@@]12CCCN1C[C@H](F)C2` [Example 269, 4-(8-Chloro-4-((1S,7S,8S)-8-fluoro-5-oxa-2-azabicyclo[5.1.0]octan-2-yl)-2-(((2R,7aS)-2-fluorotetrahydro-1H-pyrrolizin-7a(5H)-yl)methoxy-d2)pyrido[4,3-d]pyrimidin-7-yl)-5-ethynyl-6-fluoronaphthalen-2-amine], the pIC50 was above 7.30.
With `[2H]C([2H])(Oc1nc(N2CCOC[C@H]3[C@H](F)[C@H]32)c2cnc(-c3cc(N)c(F)c(C4CC4)c3C(F)(F)F)c(F)c2n1)[C@@]12CCCN1C[C@H](F)C2` [Example 270, 3-cyclopropyl-2-fluoro-5-(8-fluoro-4-((1S,7S,8S)-8-fluoro-5-oxa-2-azabicyclo[5.1.0]octan-2-yl)-2-(((2R,7aS)-2-fluorotetrahydro-1H-pyrrolizin-7a(5H)-yl)methoxy-d2)pyrido[4,3-d]pyrimidin-7-yl)-4-(trifluoromethyl)aniline] the figure was 6.30 to 7.30.
With `[2H]C([2H])(Oc1nc(N2CCOC[C@H]3[C@H](F)[C@H]32)c2cnc(-c3c(F)c(N)cc(C)c3C(F)(F)F)c(F)c2n1)[C@@]12CCCN1C[C@H](F)C2` [Example 271, 2-fluoro-3-(8-fluoro-4-((1S,7S,8S)-8-fluoro-5-oxa-2-azabicyclo[5.1.0]octan-2-yl)-2-(((2R,7aS)-2-fluorotetrahydro-1H-pyrrolizin-7a(5H)-yl)methoxy-d2)pyrido[4,3-d]pyrimidin-7-yl)-5-methyl-4-(trifluoromethyl)aniline], the pIC50 is 6.30 to 7.30.
Compound `[2H]C([2H])(Oc1nc(N2CCOC[C@H]3[C@H](F)[C@H]32)c2cnc(-c3cc(N)cc(Cl)c3C(F)(F)F)c(F)c2n1)[C@@]12CCCN1C[C@H](F)C2` [Example 272, 3-chloro-5-(8-fluoro-4-((1S,7S,8S)-8-fluoro-5-oxa-2-azabicyclo[5.1.0]octan-2-yl)-2-(((2R,7aS)-2-fluorotetrahydro-1H-pyrrolizin-7a(5H)-yl)methoxy-d2)pyrido[4,3-d]pyrimidin-7-yl)-4-(trifluoromethyl)aniline] had a pIC50 above 7.30.
Compound `[2H]c1c(F)c(C#C)c2c(-c3ncc4c(N5CCOC[C@H]6[C@H](F)[C@H]65)nc(OC([2H])([2H])[C@@]56CCCN5C[C@H](F)C6)nc4c3F)cc(N)cc2c1[2H]` [Example 273, 5-ethynyl-6-fluoro-4-(8-fluoro-4-((1S,7S,8S)-8-fluoro-5-oxa-2-azabicyclo[5.1.0]octan-2-yl)-2-(((2R,7aS)-2-fluorotetrahydro-1H-pyrrolizin-7a(5H)-yl)methoxy-d2)pyrido[4,3-d]pyrimidin-7-yl)naphthalen-7,8-d2-2-amine] had a pIC50 above 7.30.
`[2H]C([2H])(Oc1nc(N2CCOC[C@H]3[C@H](F)[C@H]32)c2cnc(-c3cc(N)cc4ccc(F)c(C#C)c34)c(F)c2n1)[C@@]12CCCN1C[C@H](C#N)C2` [Example 276, (2R,7aS)-7a-(((7-(3-amino-8-ethynyl-7-fluoronaphthalen-1-yl)-8-fluoro-4-((1S,7S,8S)-8-fluoro-5-oxa-2-azabicyclo[5.1.0]octan-2-yl)pyrido[4,3-d]pyrimidin-2-yl)oxy)methyl-d2)hexahydro-1H-pyrrolizine-2-carbonitrile] gave a pIC50 above 7.30.
`C#Cc1c(F)ccc2cc(N)cc(-c3ncc4c(N5CCOC[C@H]6[C@H](F)[C@H]65)nc(OC[C@@]56CCCN5[C@H](C)[C@H](F)C6)nc4c3F)c12` [Example 277, 5-ethynyl-6-fluoro-4-(8-fluoro-2-(((2R,3R,7aS)-2-fluoro-3-methyltetrahydro-1H-pyrrolizin-7a(5H)-yl)methoxy)-4-((1S,7S,8S)-8-fluoro-5-oxa-2-azabicyclo[5.1.0]octan-2-yl)pyrido[4,3-d]pyrimidin-7-yl)naphthalen-2-amine] gave a pIC50 above 7.30.
In turn, `C#Cc1c(F)ccc2cc(N)cc(-c3ncc4c(N5CCOC[C@H]6[C@H](F)[C@H]65)nc(OC[C@@]56CCCN5[C@@H](C)[C@H](F)C6)nc4c3F)c12` [Example 278, 5-ethynyl-6-fluoro-4-(8-fluoro-2-(((2R,3S,7aS)-2-fluoro-3-methyltetrahydro-1H-pyrrolizin-7a(5H)-yl)methoxy)-4-((1S,7S,8S)-8-fluoro-5-oxa-2-azabicyclo[5.1.0]octan-2-yl)pyrido[4,3-d]pyrimidin-7-yl)naphthalen-2-amine] gave a pIC50 above 7.30.
On to `[2H]C([2H])(Oc1nc(N2CCOC[C@H]3[C@H](F)[C@H]32)c2cnc(-c3c(F)c(N)c(F)c(C)c3C(F)(F)F)c(F)c2n1)[C@@]12CCCN1C[C@H](F)C2` [Example 279, 2,6-difluoro-3-(8-fluoro-4-((1S,7S,8S)-8-fluoro-5-oxa-2-azabicyclo[5.1.0]octan-2-yl)-2-(((2R,7aS)-2-fluorotetrahydro-1H-pyrrolizin-7a(5H)-yl)methoxy-d2)pyrido[4,3-d]pyrimidin-7-yl)-5-methyl-4-(trifluoromethyl)aniline], for which the pIC50 is 6.30 to 7.30.
Consider `C#Cc1c(F)ccc2cc(O)cc(-c3ncc4c(N5CCCO[C@@H]6C[C@@H]65)nc(OC[C@H]5CCCN5C)nc4c3F)c12` [Example 280, 4-(4-((1R,7S)-2-oxa-6-azabicyclo[5.1.0]octan-6-yl)-8-fluoro-2-(((R)-1-methylpyrrolidin-2-yl)methoxy)pyrido[4,3-d]pyrimidin-7-yl)-5-ethynyl-6-fluoronaphthalen-2-ol], for which the pIC50 was 6.30 to 7.30.
For `C#Cc1c(F)ccc2cc(O)cc(-c3ncc4c(N5CCCO[C@H]6C[C@H]65)nc(OC[C@@]5(C)CCCN5)nc4c3F)c12` [Example 281, 4-(4-((1S,7R)-2-oxa-6-azabicyclo[5.1.0]octan-6-yl)-8-fluoro-2-(((R)-2-methylpyrrolidin-2-yl)methoxy)pyrido[4,3-d]pyrimidin-7-yl)-5-ethynyl-6-fluoronaphthalen-2-ol], the pIC50 is 5.00 to 6.30.
On to `C#Cc1c(F)ccc2cc(O)cc(-c3ncc4c(N5CCCO[C@@H]6C[C@@H]65)nc(OC[C@@]5(C)CCCN5)nc4c3F)c12` [Example 282, 4-(4-((1R,7S)-2-oxa-6-azabicyclo[5.1.0]octan-6-yl)-8-fluoro-2-(((R)-2-methylpyrrolidin-2-yl)methoxy)pyrido[4,3-d]pyrimidin-7-yl)-5-ethynyl-6-fluoronaphthalen-2-ol], for which the pIC50 is 5.00 to 6.30.
Compound `C#Cc1c(F)ccc2cc(O)cc(-c3ncc4c(N5CCCO[C@H]6C[C@H]65)nc(OC[C@@]5(C)CCCN5C)nc4c3F)c12` [Example 283, 4-(4-((1S,7R)-2-oxa-6-azabicyclo[5.1.0]octan-6-yl)-2-(((R)-1,2-dimethylpyrrolidin-2-yl)methoxy)-8-fluoropyrido[4,3-d]pyrimidin-7-yl)-5-ethynyl-6-fluoronaphthalen-2-ol] had a negative logarithm of the IC50 (pIC50) above 7.30.
With `C#Cc1c(F)ccc2cc(O)cc(-c3ncc4c(N5CCOC[C@H]6[C@H](F)[C@H]65)nc(OC[C@H]5CCCN5C)nc4c3F)c12` [Example 284, 5-ethynyl-6-fluoro-4-(8-fluoro-4-((1S,7S,8S)-8-fluoro-5-oxa-2-azabicyclo[5.1.0]octan-2-yl)-2-(((R)-1-methylpyrrolidin-2-yl)methoxy)pyrido[4,3-d]pyrimidin-7-yl)naphthalen-2-ol], the pIC50 was above 7.30.
Regarding `C#Cc1c(F)ccc2cc(O)cc(-c3ncc4c(N5CCOC[C@H]6[C@H](F)[C@H]65)nc(OC[C@@H]5CCCN5C)nc4c3F)c12` [Example 285, 5-ethynyl-6-fluoro-4-(8-fluoro-4-((1S,7S,8S)-8-fluoro-5-oxa-2-azabicyclo[5.1.0]octan-2-yl)-2-(((S)-1-methylpyrrolidin-2-yl)methoxy)pyrido[4,3-d]pyrimidin-7-yl)naphthalen-2-ol], the pIC50 was above 7.30.
In the case of `[2H]C([2H])(Oc1nc(N2CCOC[C@H]3[C@H](F)[C@H]32)c2cnc(-c3cc(N)cc4ccc(F)c(C#C)c34)c(F)c2n1)[C@@]12CCCN1C[C@@H](C#N)C2` [Example 286, (2S,7aS)-7a-(((7-(3-amino-8-ethynyl-7-fluoronaphthalen-1-yl)-8-fluoro-4-((1S,7S,8S)-8-fluoro-5-oxa-2-azabicyclo[5.1.0]octan-2-yl)pyrido[4,3-d]pyrimidin-2-yl)oxy)methyl-d2)hexahydro-1H-pyrrolizine-2-carbonitrile], the negative logarithm of the IC50 (pIC50) is above 7.30.

Values taken from patent US20250282799A1, “SUBSTITUTED PYRIDO[4,3-d]PYRIMIDINES AS KRAS MODULATORS” (Alterome Therapeutics, Inc., priority 2023, published 2025).
